System: MV-4-11 cells
Experiment: Gene expression microarray analysis (Affymetrix PrimeView) and GSEA
Assay type: cell-based, human
Parameters: RFU PODN (11730768_x_at) / Fold change /veh PODN (11730768_x_at) / RFU LINC00158 (11744669_a_at) / Fold change /veh LINC00158 (11744669_a_at) / RFU DUSP10 (11751237_a_at) / Fold change /veh DUSP10 (11751237_a_at) / RFU ID3 (11757404_x_at) / Fold change /veh ID3 (11757404_x_at) / RFU PLEKHG5 (11737974_s_at) / Fold change /veh PLEKHG5 (11737974_s_at) / RFU LRRC4B (11730491_at) / Fold change /veh LRRC4B (11730491_at) / RFU GIMAP4 (11747438_a_at) / Fold change /veh GIMAP4 (11747438_a_at) / RFU KRT8 (11758183_x_at) / Fold change /veh KRT8 (11758183_x_at) / RFU CNN1 (11734310_a_at) / Fold change /veh CNN1 (11734310_a_at) / RFU VPS37D (11726825_at) / Fold change /veh VPS37D (11726825_at) / RFU C10orf10 (11716522_x_at) / Fold change /veh C10orf10 (11716522_x_at) / RFU KIR2DL2 /// KIR2DL4 /// KIR2DL5A /// KIR2DL5B /// KIR2DS1 /// KIR2DS2 /// KIR2DS3 /// KIR2DS4 /// KIR3DL3 /// KIR3DL3 /// KIR3DS1 (11738374_at) / Fold change /veh KIR2DL2 /// KIR2DL4 /// KIR2DL5A /// KIR2DL5B /// KIR2DS1 /// KIR2DS2 /// KIR2DS3 /// KIR2DS4 /// KIR3DL3 /// KIR3DL3 /// KIR3DS1 (11738374_at) / RFU C1QL1 (11718748_at) / Fold change /veh C1QL1 (11718748_at) / RFU TMPRSS4 (11747572_a_at) / Fold change /veh TMPRSS4 (11747572_a_at) / RFU HAMP (11756126_x_at) / Fold change /veh HAMP (11756126_x_at) / RFU RNFT2 (11725882_a_at) / Fold change /veh RNFT2 (11725882_a_at) / RFU NR4A2 (11747474_a_at) / Fold change /veh NR4A2 (11747474_a_at) / RFU ABCC12 (11746883_a_at) / Fold change /veh ABCC12 (11746883_a_at) / RFU TMEM136 (11760407_x_at) / Fold change /veh TMEM136 (11760407_x_at) / RFU CLDN22 /// WWC2 (11732394_at) / Fold change /veh CLDN22 /// WWC2 (11732394_at) / RFU HLA-DPB1 (11760878_x_at) / Fold change /veh HLA-DPB1 (11760878_x_at) / RFU SPINT1 (11716480_a_at) / Fold change /veh SPINT1 (11716480_a_at) / RFU GAP43 (11754022_s_at) / Fold change /veh GAP43 (11754022_s_at) / RFU A4GNT (11735810_at) / Fold change /veh A4GNT (11735810_at) / RFU PRB3 (11715151_x_at) / Fold change /veh PRB3 (11715151_x_at) / RFU TUBB4B (11761932_at) / Fold change /veh TUBB4B (11761932_at) / RFU CAPN14 (11732068_a_at) / Fold change /veh CAPN14 (11732068_a_at) / RFU TMCC2 (11721928_a_at) / Fold change /veh TMCC2 (11721928_a_at) / RFU IRGQ (11745062_a_at) / Fold change /veh IRGQ (11745062_a_at) / RFU FAM174B (11720279_a_at) / Fold change /veh FAM174B (11720279_a_at) / RFU TMPRSS4 (11748680_a_at) / Fold change /veh TMPRSS4 (11748680_a_at) / RFU FAM212B (11763350_a_at) / Fold change /veh FAM212B (11763350_a_at) / RFU PLEKHG5 (11743358_a_at) / Fold change /veh PLEKHG5 (11743358_a_at) / RFU ZSCAN30 (11745921_a_at) / Fold change /veh ZSCAN30 (11745921_a_at) / RFU CMKLR1 (11741424_a_at) / Fold change /veh CMKLR1 (11741424_a_at) / RFU LOC101060620 /// MAPK8IP1 (11723275_at) / Fold change /veh LOC101060620 /// MAPK8IP1 (11723275_at) / RFU SPTSSB (11747773_x_at) / Fold change /veh SPTSSB (11747773_x_at) / RFU PRSS12 (11739890_at) / Fold change /veh PRSS12 (11739890_at) / RFU BIN1 (11741810_x_at) / Fold change /veh BIN1 (11741810_x_at) / RFU WNT11 (11732464_a_at) / Fold change /veh WNT11 (11732464_a_at) / RFU C10orf10 (11716521_a_at) / Fold change /veh C10orf10 (11716521_a_at) / RFU C5orf56 (11738089_at) / Fold change /veh C5orf56 (11738089_at) / RFU CYB561 (11721691_x_at) / Fold change /veh CYB561 (11721691_x_at) / RFU ANKRD19P (11752326_a_at) / Fold change /veh ANKRD19P (11752326_a_at) / RFU OR2T12 /// OR2T33 /// OR2T8 (11738714_s_at) / Fold change /veh OR2T12 /// OR2T33 /// OR2T8 (11738714_s_at) / RFU VCAN (11748164_a_at) / Fold change /veh VCAN (11748164_a_at) / RFU JSRP1 (11732532_at) / Fold change /veh JSRP1 (11732532_at) / RFU KRTAP10-11 (11738290_x_at) / Fold change /veh KRTAP10-11 (11738290_x_at) / RFU MYO3A (11730013_a_at) / Fold change /veh MYO3A (11730013_a_at) / RFU EBF3 (11725865_a_at) / Fold change /veh EBF3 (11725865_a_at) / RFU CAMK2N1 (11719241_x_at) / Fold change /veh CAMK2N1 (11719241_x_at) / RFU C5orf56 (11738088_a_at) / Fold change /veh C5orf56 (11738088_a_at) / RFU OLFML3 (11715873_a_at) / Fold change /veh OLFML3 (11715873_a_at) / RFU LOC100653217 /// NTM (11731650_a_at) / Fold change /veh LOC100653217 /// NTM (11731650_a_at) / RFU MAPK11 (11762145_a_at) / Fold change /veh MAPK11 (11762145_a_at) / RFU FIZ1 (11724087_x_at) / Fold change /veh FIZ1 (11724087_x_at) / RFU OASL (11726364_x_at) / Fold change /veh OASL (11726364_x_at) / RFU SOX15 (11748057_x_at) / Fold change /veh SOX15 (11748057_x_at) / RFU CD79A (11719716_a_at) / Fold change /veh CD79A (11719716_a_at) / RFU HIST1H1D (11736915_at) / Fold change /veh HIST1H1D (11736915_at) / RFU CASKIN2 (11723855_a_at) / Fold change /veh CASKIN2 (11723855_a_at) / RFU LOC730098 (11760151_x_at) / Fold change /veh LOC730098 (11760151_x_at) / RFU OR4N2 (11742367_at) / Fold change /veh OR4N2 (11742367_at) / RFU PRRT2 (11749266_a_at) / Fold change /veh PRRT2 (11749266_a_at) / RFU SNX32 (11753110_a_at) / Fold change /veh SNX32 (11753110_a_at) / RFU CDHR5 (11726645_a_at) / Fold change /veh CDHR5 (11726645_a_at) / RFU RCAN1 (11760418_a_at) / Fold change /veh RCAN1 (11760418_a_at) / RFU FAM167A (11723789_a_at) / Fold change /veh FAM167A (11723789_a_at) / RFU FAM26E (11764081_at) / Fold change /veh FAM26E (11764081_at) / RFU ISYNA1 (11749810_s_at) / Fold change /veh ISYNA1 (11749810_s_at) / RFU ACY1 (11761880_at) / Fold change /veh ACY1 (11761880_at) / RFU 11764098_at / Fold change /veh 11764098_at / RFU SAMD14 (11745864_x_at) / Fold change /veh SAMD14 (11745864_x_at) / RFU NPB (11741838_a_at) / Fold change /veh NPB (11741838_a_at) / RFU TMPRSS6 (11731388_a_at) / Fold change /veh TMPRSS6 (11731388_a_at) / RFU KRTAP10-2 (11738614_at) / Fold change /veh KRTAP10-2 (11738614_at) / RFU ARHGAP8 /// PRR5-ARHGAP8 (11727945_x_at) / Fold change /veh ARHGAP8 /// PRR5-ARHGAP8 (11727945_x_at) / RFU KRTAP5-7 /// NADSYN1 (11734609_at) / Fold change /veh KRTAP5-7 /// NADSYN1 (11734609_at) / RFU RASL12 (11751679_a_at) / Fold change /veh RASL12 (11751679_a_at) / RFU CDKN2B (11736163_a_at) / Fold change /veh CDKN2B (11736163_a_at) / RFU PRF1 (11729649_at) / Fold change /veh PRF1 (11729649_at) / RFU, ZNF638 /// ZNF638-IT1 / Fold change vs veh, ZNF638 /// ZNF638-IT1 / RFU, PANK3 / Fold change vs veh, PANK3 / RFU, SH3YL1 / Fold change vs veh, SH3YL1 / RFU, ZEB2 / Fold change vs veh, ZEB2 / RFU, NRIP1 / Fold change vs veh, NRIP1 / RFU, PTTG1IP / Fold change vs veh, PTTG1IP / RFU, CAPN2 / Fold change vs veh, CAPN2 / RFU, MED14 / Fold change vs veh, MED14 / RFU, SNORA58 / Fold change vs veh, SNORA58 / RFU, C1orf63 / Fold change vs veh, C1orf63 / RFU, LRRFIP1 / Fold change vs veh, LRRFIP1 / RFU, NDUFAF7 / Fold change vs veh, NDUFAF7 / RFU, SLC12A2 / Fold change vs veh, SLC12A2 / RFU, IBTK / Fold change vs veh, IBTK / RFU, ESF1 / Fold change vs veh, ESF1 / Fold change vs veh, TMEM50B / RFU, TAOK1 / Fold change vs veh, TAOK1 / RFU, ACBD3 / Fold change vs veh, ACBD3 / RFU, TMA16 / Fold change vs veh, TMA16 / RFU, RWDD3 / Fold change vs veh, RWDD3 / RFU, BCAT1 / Fold change vs veh, BCAT1 / RFU, EDEM3 / Fold change vs veh, EDEM3 / RFU, TMEM33 / Fold change vs veh, TMEM33 / RFU, WDR75 / Fold change vs veh, WDR75 / RFU, AHCTF1 / Fold change vs veh, AHCTF1 / RFU, TFRC / Fold change vs veh, TFRC / RFU, ZDHHC17 / Fold change vs veh, ZDHHC17 / RFU, NOM1 / Fold change vs veh, NOM1 / RFU, ARL8B / Fold change vs veh, ARL8B / RFU, ZBTB11 / Fold change vs veh, ZBTB11 / RFU, TAMM41 / Fold change vs veh, TAMM41 / RFU, KIAA1704 /// LOC100996395 / Fold change vs veh, KIAA1704 /// LOC100996395 / RFU, ING1 / Fold change vs veh, ING1 / RFU, TRMT61B / Fold change vs veh, TRMT61B / RFU, FUBP3 / Fold change vs veh, FUBP3 / RFU, TP53 / Fold change vs veh, TP53 / RFU, TNKS2 / Fold change vs veh, TNKS2 / RFU, ZFP14 / Fold change vs veh, ZFP14 / RFU, ACTR2 / Fold change vs veh, ACTR2 / RFU, PPP3R1 / Fold change vs veh, PPP3R1 / RFU, PIK3R1 / Fold change vs veh, PIK3R1 / RFU, HNRNPA1 / Fold change vs veh, HNRNPA1 / RFU, RNF170 / Fold change vs veh, RNF170 / RFU, ZNF28 / Fold change vs veh, ZNF28 / RFU, RNGTT / Fold change vs veh, RNGTT / RFU, OGT / Fold change vs veh, OGT / RFU, BRD1 / Fold change vs veh, BRD1 / RFU, MARS / Fold change vs veh, MARS / RFU, ZNF655 / Fold change vs veh, ZNF655 / RFU, FAHD1 / Fold change vs veh, FAHD1 / RFU, BDP1 / Fold change vs veh, BDP1 / RFU, LRRCC1 / Fold change vs veh, LRRCC1 / RFU, ARID1A / Fold change vs veh, ARID1A / RFU, ZNF146 / Fold change vs veh, ZNF146 / RFU, ZNF330 / Fold change vs veh, ZNF330 / RFU, GPN3 / Fold change vs veh, GPN3 / RFU, C9orf123 / Fold change vs veh, C9orf123 / RFU, N4BP2L2 / Fold change vs veh, N4BP2L2 / RFU, ARFIP1 / Fold change vs veh, ARFIP1 / RFU, FAM179B / Fold change vs veh, FAM179B / RFU, BCL10 / Fold change vs veh, BCL10 / RFU, UHRF1BP1L / Fold change vs veh, UHRF1BP1L / RFU, BET1 / Fold change vs veh, BET1 / RFU, CNOT2 / Fold change vs veh, CNOT2 / RFU, ZNF268 / Fold change vs veh, ZNF268 / Fold change vs veh, ZNF507 / RFU, DGCR2 / Fold change vs veh, DGCR2 / RFU, WDSUB1 / Fold change vs veh, WDSUB1 / Fold change vs veh, HSP90B1 /// MIR3652 / RFU, ADSS / Fold change vs veh, ADSS / RFU, GK / Fold change vs veh, GK / RFU, ZNF148 / Fold change vs veh, ZNF148 / RFU, TAF9 / Fold change vs veh, TAF9 / RFU, SLC1A5 / Fold change vs veh, SLC1A5 / RFU, SLMO2 / Fold change vs veh, SLMO2 / RFU, ABCC4 / Fold change vs veh, ABCC4 / RFU, LOC101060439 /// RAP1B / Fold change vs veh, LOC101060439 /// RAP1B / RFU, RFX7 / Fold change vs veh, RFX7 / RFU, GTPBP10 / Fold change vs veh, GTPBP10 / RFU, CNEP1R1 / Fold change vs veh, CNEP1R1 / RFU, BIVM-ERCC5 /// ERCC5 / Fold change vs veh, BIVM-ERCC5 /// ERCC5 / RFU, ILF3 / Fold change vs veh, ILF3 / RFU 11762660_at / Fold change /veh 11762660_at / RFU VCAN (11757783_s_at) / Fold change /veh VCAN (11757783_s_at) / RFU DDX43 (11728927_at) / Fold change /veh DDX43 (11728927_at) / RFU KRT8 (11758188_x_at) / Fold change /veh KRT8 (11758188_x_at) / RFU NKD1 (11759106_at) / Fold change /veh NKD1 (11759106_at) / RFU SRD5A1 (11742802_a_at) / Fold change /veh SRD5A1 (11742802_a_at) / RFU TPSAB1 /// TPSB2 (11721975_s_at) / Fold change /veh TPSAB1 /// TPSB2 (11721975_s_at) / RFU GSTM3 (11746129_a_at) / Fold change /veh GSTM3 (11746129_a_at) / RFU IL23R (11737362_x_at) / Fold change /veh IL23R (11737362_x_at) / RFU TMEM51 (11727254_a_at) / Fold change /veh TMEM51 (11727254_a_at) / RFU PIWIL2 (11732686_x_at) / Fold change /veh PIWIL2 (11732686_x_at) / RFU ORM1 (11744905_x_at) / Fold change /veh ORM1 (11744905_x_at) / RFU CCDC152 (11743942_at) / Fold change /veh CCDC152 (11743942_at) / RFU ECM1 (11717891_a_at) / Fold change /veh ECM1 (11717891_a_at) / RFU IL23R (11748794_a_at) / Fold change /veh IL23R (11748794_a_at) / RFU TNFAIP8L3 (11732012_x_at) / Fold change /veh TNFAIP8L3 (11732012_x_at) / RFU MBOAT4 (11741988_at) / Fold change /veh MBOAT4 (11741988_at) / RFU 11764193_at / Fold change /veh 11764193_at / RFU TMEM53 (11763286_at) / Fold change /veh TMEM53 (11763286_at) / RFU MAGEB2 (11727129_at) / Fold change /veh MAGEB2 (11727129_at) / RFU TMEM200A (11744735_a_at) / Fold change /veh TMEM200A (11744735_a_at) / RFU CCDC152 (11751479_a_at) / Fold change /veh CCDC152 (11751479_a_at) / RFU FAM211A (11726209_a_at) / Fold change /veh FAM211A (11726209_a_at) / RFU RGS16 (11746705_a_at) / Fold change /veh RGS16 (11746705_a_at) / RFU VCAN (11755009_s_at) / Fold change /veh VCAN (11755009_s_at) / RFU RHOB (11743442_s_at) / Fold change /veh RHOB (11743442_s_at) / RFU RGS16 (11720943_a_at) / Fold change /veh RGS16 (11720943_a_at) / RFU RGS16 (11720944_at) / Fold change /veh RGS16 (11720944_at) / RFU, VPS4B / Fold change vs veh, VPS4B / RFU, CREB1 / Fold change vs veh, CREB1 / RFU, DNAJC13 / Fold change vs veh, DNAJC13 / RFU, GNAQ / Fold change vs veh, GNAQ / RFU, CDK5R1 / Fold change vs veh, CDK5R1 / RFU, ZRANB3 / Fold change vs veh, ZRANB3 / RFU, CUL4A / Fold change vs veh, CUL4A / RFU, CCNY / Fold change vs veh, CCNY / RFU, UFL1 / Fold change vs veh, UFL1 / RFU, COG3 / Fold change vs veh, COG3 / RFU, DIAPH2 / Fold change vs veh, DIAPH2 / RFU, SKA2 / Fold change vs veh, SKA2 / RFU, AFF3 / Fold change vs veh, AFF3 / RFU, LMF1 / Fold change vs veh, LMF1 / RFU, IPO11 / Fold change vs veh, IPO11 / RFU, DFFB / Fold change vs veh, DFFB / RFU, FOXP1 / Fold change vs veh, FOXP1 / RFU, CARD8 / Fold change vs veh, CARD8 / RFU, STRN3 / Fold change vs veh, STRN3 / RFU, ADK / Fold change vs veh, ADK / RFU, RASSF2 / Fold change vs veh, RASSF2 / RFU, WIPF1 / Fold change vs veh, WIPF1 / RFU, LARP1B / Fold change vs veh, LARP1B / RFU, RASA1 / Fold change vs veh, RASA1 / RFU, RB1 / Fold change vs veh, RB1 / RFU, PPFIA1 / Fold change vs veh, PPFIA1 / RFU, MAT2A / Fold change vs veh, MAT2A / RFU, CCT5 / Fold change vs veh, CCT5 / RFU, WDR92 / Fold change vs veh, WDR92 / RFU, CUX1 / Fold change vs veh, CUX1 / RFU, TTC7A / Fold change vs veh, TTC7A / RFU, TMEM135 / Fold change vs veh, TMEM135 / RFU, DEPTOR / Fold change vs veh, DEPTOR / RFU, CPM / Fold change vs veh, CPM / RFU, DNAJB6 / Fold change vs veh, DNAJB6 / RFU, CACNA2D3 / Fold change vs veh, CACNA2D3 / RFU, DTX4 / Fold change vs veh, DTX4 / RFU, TFCP2 / Fold change vs veh, TFCP2 / RFU, GMCL1 /// GMCL1P1 / Fold change vs veh, GMCL1 /// GMCL1P1 / RFU, AEBP2 / Fold change vs veh, AEBP2 / RFU, SNHG1 /// SNORD22 /// SNORD25 /// SNORD26 /// SNORD27 /// SNORD28 /// SNORD29 /// SNORD31 / Fold change vs veh, SNHG1 /// SNORD22 /// SNORD25 /// SNORD26 /// SNORD27 /// SNORD28 /// SNORD29 /// SNORD31 / Fold change (Aza/veh), C12orf56 (ProbeSet 11735607_a_at) / Fold change (ACY-1035/veh), C12orf56 (ProbeSet 11735607_a_at) / Fold change (Aza/veh), FGFR1OP (ProbeSet 11751329_s_at) / Fold change (ACY-1035/veh), FGFR1OP (ProbeSet 11751329_s_at) / Fold change (Aza/veh), VPS36 (ProbeSet 11739960_a_at) / Fold change (ACY-1035/veh), VPS36 (ProbeSet 11739960_a_at) / RFU SYPL1 (11715823_x_at) / Fold change /veh SYPL1 (11715823_x_at) / RFU IGFBP7 (11715501_s_at) / Fold change /veh IGFBP7 (11715501_s_at) / RFU REEP3 (11722064_at) / Fold change /veh REEP3 (11722064_at) / RFU IGLL1 (11728026_x_at) / Fold change /veh IGLL1 (11728026_x_at): dose or concentration left out as unconfirmed
Details: ProbeSet 11741070_a_at; LIST B

Structure (SMILES): Nc1ncn([C@@H]2O[C@H](CO)[C@@H](O)[C@H]2O)c(=O)n1 [azacitidine]
- Fold change vs veh, ZNF146: 0.88

— PMC5218480 (PLoS ONE, 2017)
